Laboratory results published in PubChem BioAssay (NCI).
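96-well plates; 48 h exposure; 5 concentrations. Endpoints by linear interpolation between flanking doses. Not reached: highest tested concentration assigned. GI50 marks 50% less growth. TGI marks complete inhibition of growth.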

Legend:
Assay in all cases: inhibition of tumour cell growth, NCI panel, 48 h
[1] = test system: BT-549 breast
[2] = test system: DU-145 prostate
[3] = test system: HCT-116 colon
[4] = test system: MDA-MB-231 breast
[5] = test system: NCI-H23 lung
[6] = test system: SK-MEL-28 melanoma
[7] = test system: SK-OV-3 ovarian
[8] = test system: UACC-62 melanoma
[9] = test system: LXFL 529 NSCLC
[10] = test system: M19-MEL melanoma

Row | SMILES | GI50 [1] [µM] | TGI [1] [µM] | GI50 [2] [µM] | TGI [2] [µM] | GI50 [3] [µM] | TGI [3] [µM] | GI50 [4] [µM] | TGI [4] [µM] | GI50 [5] [µM] | TGI [5] [µM] | GI50 [6] [µM] | TGI [6] [µM] | GI50 [7] [µM] | TGI [7] [µM] | GI50 [8] [µM] | TGI [8] [µM] | TGI [9] [µM] | TGI [10] [µM] | GI50 [9] [µM] | GI50 [10] [µM]
1 | CNc1ccc(C(=O)CC(O)CCC(C)C2OC(=O)CC(O)CC(=O)CC(O)CC(O)CC(O)CC(O)CC3(O)CC(O)C(C(=O)NCCc4ccccn4)C(CC(OC4OC(C)C(O)C(N)C4O)/C=C/C=C/C=C/C=C\C=C/C=C/C=C/C2C)O3)cc1 (stereo unspecified) | 1.27 | > 50 | 0.183 | 0.672 | 0.741 | > 50 | 6.23 | > 21.2 | 0.118 | 0.271 | 0.161 | > 50 | 2.32 | > 50 | 1.54 | > 34.2 | – | – | – | –
2 | O=C(Nc1cccc(-n2cc(-c3ccncc3)c(-c3ccc(O)c(Cl)c3)n2)c1)c1ccc(N2CCOCC2)c(C(F)(F)F)c1 | 2.35 | > 50 | > 50 | > 50 | 2.35 | > 50 | 0.857 | 3.09 | 3.95 | > 50 | 3.75 | > 50 | > 50 | > 50 | > 50 | > 50 | – | – | – | –
3 | COc1cccc(N2C(=O)[C@H]3[C@H]4CC(C(C)(C)C)CC[C@H]4c4c([nH]c5ccccc45)[C@H]3C2=O)c1 (stereo partly specified) | – | – | – | – | – | – | – | – | – | 40.9 | – | 35.6 | – | 35.3 | – | 28.3 | 42.3 | 44.1 | – | –
4 | C[C@]12CC/C(=N\OC(=O)Nc3ccccc3)C=C1CC[C@@H]1C2CC[C@@]2(C)C1CC[C@@H]2OC(=O)Nc1ccccc1 (stereo partly specified) | – | – | – | – | – | > 100 | – | – | – | > 100 | – | – | – | > 100 | – | > 100 | > 100 | > 100 | – | –
5 | COC(=O)c1cc(NC(=O)CN(CCN(CC(=O)O)CC(=O)Nc2ccc(O)c(C(=O)OC)c2)CC(=O)O)ccc1O | 52.1 | > 100 | 31.9 | > 100 | 43.9 | > 100 | > 100 | > 100 | 78.9 | > 100 | > 100 | > 100 | 45.5 | > 100 | 48.2 | > 100 | – | – | – | –
6 | Cc1cccc2c1NC(=O)C2(c1ccc(O)cc1)c1ccc(O)cc1 | < 0.01 | – | 15.3 | 55.4 | 11.3 | 25.5 | 13.3 | 33.3 | 0.0459 | 31.8 | 16.4 | 46.5 | 19.2 | 42 | 11.4 | 35.1 | – | – | – | –
7 | COC(=O)C1=C(C)N(NC(=O)c2cccc(Cl)c2)C(C)(O)C12CCOC2=O (stereo unspecified) | – | – | – | – | – | > 100 | – | – | – | – | – | > 100 | – | > 100 | – | > 100 | > 100 | > 100 | – | –
8 | COc1ccc(OC)c(-c2cc(C(=O)O)c3cc4ccccc4cc3n2)c1 | – | > 100 | – | > 100 | – | > 100 | – | > 100 | – | > 100 | – | > 100 | – | > 100 | – | > 100 | – | – | – | –
9 | NC(=O)OCC(COc1ccc(Cl)cc1)OC(=O)c1cc([N+](=O)[O-])cc([N+](=O)[O-])c1 (stereo unspecified) | – | – | – | – | – | > 100 | – | – | – | > 100 | – | > 100 | – | > 100 | – | > 100 | > 100 | – | – | –
10 | CS(=O)(=O)c1ccc(-c2[nH]c3ccc(F)cc3c2/C=N/NC(N)=S)cc1 | 1.61 | 34.4 | 2.24 | > 100 | 0.437 | > 100 | 1.65 | > 100 | 4.66 | > 100 | 12.3 | > 100 | 1.86 | > 100 | 0.531 | > 100 | – | – | – | –
11 | O=C(NCCCCCCNC(=O)NC1OCC(O)C(O)C1O)NC1OCC(O)C(O)C1O (stereo unspecified) | – | – | – | – | – | > 100 | – | – | – | > 100 | – | > 100 | – | > 100 | – | > 100 | > 100 | > 100 | – | –
12 | Cc1ccc(S(=O)(=O)NC(=O)C#CCOC2CCCCO2)cc1 (stereo unspecified) | – | – | – | – | – | > 100 | – | – | – | > 100 | – | > 100 | – | – | – | > 100 | > 100 | > 100 | – | –
13 | CCC[CH2][Ge]([CH2]CCC)([CH2]CCC)[O]C(=O)C(OC(C)=O)c1ccccc1 (stereo unspecified) | – | – | – | – | 0.139 | 13.4 | – | – | 0.0395 | 6.24 | 8.12 | 22.1 | 12.4 | 55.5 | 1.64 | 15.6 | 21 | 20.3 | 1.31 | 5.13
14 | O=C1c2ccccc2CCC1(Br)Br | 2 | 4.96 | 3.73 | 12 | 0.888 | 2.23 | 1.97 | 4.72 | 1.99 | 4.9 | 2.08 | 4.65 | 6.12 | 18.2 | 1.96 | 4.54 | – | – | – | –
15 | CCCCCCCCCCCCCC(=O)OC1C(CO)OC(=O)C1O (stereo unspecified) | – | – | – | – | – | > 100 | – | – | – | > 100 | – | – | – | > 100 | – | > 100 | > 100 | > 100 | – | –
16 | O=C(c1ccncc1)N1CCN(C2=NS(=O)(=O)c3ccccc3N2c2ccccc2)CC1 | 17.1 | 52.1 | 7.77 | > 100 | 14.5 | 33.3 | 30.7 | 75.2 | 7.43 | 41.6 | 15.6 | 38.7 | 13.4 | > 100 | 7.99 | 21.6 | – | – | – | –
17 | COc1ccc(CCN2COc3ccc4ccc(=O)oc4c3C2)cc1OC | – | > 100 | – | > 100 | – | > 100 | – | > 100 | – | > 100 | – | > 100 | – | > 100 | – | > 100 | – | – | – | –
18 | Cc1cc(O)c(O)c(Oc2cc(C)cc(O)c2O)c1 | – | 78.9 | – | > 100 | – | 41.1 | – | 52.7 | – | > 100 | – | > 100 | – | > 100 | – | 56.8 | – | – | – | –
19 | CS(=O)(=O)N(CC(=O)O)Cc1ccccc1 | – | > 100 | – | > 100 | – | > 100 | – | > 100 | – | > 100 | – | > 100 | – | > 100 | – | > 100 | – | – | – | –
20 | N#CC(C(=O)C(=O)Nc1ccc(Cl)c(Cl)c1)c1ccc(Cl)cc1 (stereo unspecified) | – | – | – | – | – | 49.8 | – | – | – | > 100 | – | > 100 | – | > 100 | – | > 100 | > 100 | – | – | –
